According to article PMC9458148 (Molecules, 2022):
Like-named read-outs stand apart in the source and are kept apart here.

Experiments:
Tyrosinase [1] = biological target: T1, Tyrosinase (Agaricus bisporus, UniProt C7FF04); assay: Enzyme kinetics on tyrosinase (Lineweaver–Burk and Dixon plots); format: biochemical; settings: various substrate concentrations
Protocol: The v0 was calculated at ~10% of the substrate conversion rate by tyrosinase. The results are shown as Lineweaver–Burk plots (Figure 2A–C and Table 1).
(§1) To assess the inhibitory effect of compounds on tyrosinase, 130 μL tyrosinase in 0.05 mM phosphate buffer (pH 6.8) was aliquoted into 96-well plates, and 20 μL of each compound at concentrations ranging from 0.5 to 0.0075 mM was added. Next, 50 μL 1.2 mM L-tyrosine in phosphate buffer was diluted to calculate the inhibitory activity. Finally, 50 μL 10–0.62 mM l-tyrosine in buffer was added to analyze the initial velocity (v0). Twenty minutes after starting the reaction, the amount of product was detected at 475 nm. The inhibitory activity was calculated using the following equation: Inhibitory activity rate (%) = [(ΔC − ΔS)/ΔC] × 100, where C and S are the intensity of control and inhibitor after 20 min, respectively.
Target sequence in this assay (C7FF04 2-392): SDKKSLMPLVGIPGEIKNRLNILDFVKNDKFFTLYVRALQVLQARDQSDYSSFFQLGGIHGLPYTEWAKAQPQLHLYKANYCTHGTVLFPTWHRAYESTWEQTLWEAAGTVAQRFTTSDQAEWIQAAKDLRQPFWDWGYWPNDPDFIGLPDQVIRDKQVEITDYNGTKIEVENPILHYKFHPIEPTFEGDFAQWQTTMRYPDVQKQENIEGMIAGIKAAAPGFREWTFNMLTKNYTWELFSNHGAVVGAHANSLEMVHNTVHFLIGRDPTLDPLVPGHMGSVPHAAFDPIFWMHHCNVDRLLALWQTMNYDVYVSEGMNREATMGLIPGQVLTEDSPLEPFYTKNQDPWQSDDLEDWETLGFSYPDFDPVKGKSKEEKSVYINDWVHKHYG

Tyrosinase [2] = biological target: T1, Tyrosinase; assay: Tyrosinase assay (inhibitory activity, L-tyrosine substrate, product detected at 475 nm); format: biochemical; design: purchased Sigma–Aldrich T3824; settings: for Inhibitory Ratio at 50 μM: 50 μM compound
Protocol: as §1
Target sequence in this assay (C7FF04 1-392 limits assumed): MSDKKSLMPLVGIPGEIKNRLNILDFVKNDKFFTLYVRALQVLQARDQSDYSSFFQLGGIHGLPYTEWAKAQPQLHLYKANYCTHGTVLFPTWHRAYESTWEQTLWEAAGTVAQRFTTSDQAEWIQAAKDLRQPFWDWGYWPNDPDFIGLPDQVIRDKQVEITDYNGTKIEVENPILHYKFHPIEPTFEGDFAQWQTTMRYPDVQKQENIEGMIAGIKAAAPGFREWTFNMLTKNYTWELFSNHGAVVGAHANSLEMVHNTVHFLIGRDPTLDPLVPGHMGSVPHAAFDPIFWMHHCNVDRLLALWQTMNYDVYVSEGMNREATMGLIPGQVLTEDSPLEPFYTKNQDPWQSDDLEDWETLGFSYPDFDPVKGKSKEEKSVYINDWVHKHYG

[3] = Mean ± SEM, tested three times, read-out: IC50

Compound | Binding Mode (Tyrosinase [1]) | IC50 (Tyrosinase [2]) [µM] | Inhibitory activity on tyrosinase (in words) (Tyrosinase [2]) | Inhibitory Ratio at 50 μM (Tyrosinase [2]; tested three times) [%] | IC50 (Tyrosinase [2]; [3]) [µM]
Oc1cc(O)c2ccc(-c3ccc(O)c(O)c3)[o+]c2c1 [Compound 1, luteolinidin] | Competitive inhibitor | 3.7 ± 0.8 | most potent inhibitors |  | 
COc1cc(-c2[o+]c3cc(O)cc(O)c3cc2O[C@@H]2O[C@H](CO)[C@@H](O)[C@H](O)[C@H]2O)cc(O)c1O [Compound 2, petunidin 3-O-glucoside] | Competitive inhibitor |  | most potent inhibitors | 69.2 ± 1.0 | 10.3 ± 1
OC[C@H]1O[C@@H](Oc2cc3c(O)cc(O)cc3[o+]c2-c2cc(O)c(O)c(O)c2)[C@H](O)[C@@H](O)[C@H]1O [Compound 3, delphinidin 3-O-galactoside] | Competitive inhibitor |  | moderate inhibitory activity | 55.2 ± 0.9 | 41.3 ± 3.2
OC[C@H]1O[C@@H](Oc2cc3c(O)cc(O)cc3[o+]c2-c2ccc(O)c(O)c2)[C@H](O)[C@@H](O)[C@@H]1O [Compound 4, kuromanin (cyanidin 3-O-glucoside)] |  |  |  | −1.9 ± 40.0 | 
OC[C@H]1O[C@@H](Oc2cc3c(O)cc(O)cc3[o+]c2-c2cc(O)c(O)c(O)c2)[C@H](O)[C@@H](O)[C@@H]1O [Compound 5, delphinidin 3-O-glucoside] |  |  |  | 47.5 ± 3.2 | 
OC[C@H]1O[C@@H](Oc2cc3c(O)cc(O)cc3[o+]c2-c2ccc(O)cc2)[C@H](O)[C@@H](O)[C@@H]1O [Compound 6, callistephin (pelargonidin 3-O-glucoside)] |  |  |  | 6.5 ± 2.1 | 
